Experimental data reported in ChEMBL document CHEMBL1201862, “PubChem BioAssay data set” (2004).
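Results reflect a 48-hour exposure of cells in 96-well plates to compound at five concentrations. The concentration for 50% growth inhibition is given as GI50.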 The source made the active and inactive calls. No stated cut-off is given here; in the data, active = GI50 up to about 1.1 µM and inactive = higher.

Key:
Assay in all cases: inhibition of tumour cell growth, NCI panel, 48 h
OVCAR-5 = system: OVCAR-5
SK-MEL-2 = system: SK-MEL-2
MDA-MB-435 = system: MDA-MB-435
M14 = system: M14
RXF 393 = system: RXF 393
SF-539 = system: SF-539
EKVX = system: EKVX
HCT-116 = system: HCT-116
T47D = system: T47D
Hs-578T = system: Hs-578T
A549 = system: A549
DU-145 = system: DU-145
MCF7 = system: MCF7
MDA-N = system: MDA-N
OVCAR-4 = system: OVCAR-4
SF-295 = system: SF-295
K562 = system: K562
U-251 = system: U-251
MOLT-4 = system: MOLT-4
SN12C = system: SN12C
NCI/ADR-RES = system: NCI/ADR-RES
HL-60 = system: HL-60
SR = system: SR
SK-OV-3 = system: SK-OV-3
HCC 2998 = system: HCC 2998
CCRF-CEM = system: CCRF-CEM
SW-620 = system: SW-620
ACHN = system: ACHN
UACC-62 = system: UACC-62
IGROV-1 = system: IGROV-1
BT-549 = system: BT-549
SNB-19 = system: SNB-19
Malme-3M = system: Malme-3M
A498 = system: A498
HCT-15 = system: HCT-15
NCI-H226 = system: NCI-H226
CAKI-1 = system: CAKI-1
PC-3 = system: PC-3
OVCAR-3 = system: OVCAR-3
NCI-H460 = system: NCI-H460
UO-31 = system: UO-31
RPMI-8226 = system: RPMI-8226
SF-268 = system: SF-268
NCI-H23 = system: NCI-H23
TK-10 = system: TK-10
COLO 205 = system: COLO 205
SK-MEL-28 = system: SK-MEL-28
HOP-92 = system: HOP-92
NCI-H522 = system: NCI-H522
SK-MEL-5 = system: SK-MEL-5
HT-29 = system: HT-29
UACC-257 = system: UACC-257
KM12 = system: KM12
SNB-75 = system: SNB-75
OVCAR-8 = system: OVCAR-8
MDA-MB-231 = system: MDA-MB-231
786-0 = system: 786-0
HOP-62 = system: HOP-62
LOX IMVI = system: LOX IMVI

Compound: O=C(O)C1CC(c2ccc(F)cc2)=Nc2ccc(F)cc2S1 (stereo not drawn)
- GI50 (OVCAR-5): > 100 µM (inactive)
- GI50 (SK-MEL-2): > 100 µM (inactive)
- GI50 (MDA-MB-435): > 100 µM (inactive)
- GI50 (M14): 68.2 µM (inactive)
- GI50 (RXF 393): > 100 µM (inactive)
- GI50 (SF-539): 92.3 µM (inactive)
- GI50 (EKVX): > 100 µM (inactive)
- GI50 (HCT-116): > 100 µM (inactive)
- GI50 (T47D): > 100 µM (inactive)
- GI50 (Hs-578T): > 100 µM (inactive)
- GI50 (A549): > 100 µM (inactive)
- GI50 (DU-145): > 100 µM (inactive)
- GI50 (MCF7): > 100 µM (inactive)
- GI50 (MDA-N): > 100 µM (inactive)
- GI50 (OVCAR-4): > 100 µM (inactive)
- GI50 (SF-295): > 100 µM (inactive)
- GI50 (K562): > 100 µM (inactive)
- GI50 (U-251): > 10 µM (inactive)
- GI50 (MOLT-4): > 100 µM (inactive)
- GI50 (SN12C): > 100 µM (inactive)
- GI50 (NCI/ADR-RES): > 100 µM (inactive)
- GI50 (HL-60): > 100 µM (inactive)
- GI50 (SR): > 10 µM (inactive)
- GI50 (SK-OV-3): > 100 µM (inactive)
- GI50 (HCC 2998): > 100 µM (inactive)
- GI50 (CCRF-CEM): > 100 µM (inactive)
- GI50 (SW-620): > 100 µM (inactive)
- GI50 (ACHN): > 100 µM (inactive)
- GI50 (UACC-62): > 100 µM (inactive)
- GI50 (IGROV-1): > 100 µM (inactive)
- GI50 (BT-549): > 100 µM (inactive)
- GI50 (SNB-19): > 100 µM (inactive)
- GI50 (Malme-3M): > 100 µM (inactive)
- GI50 (A498): > 100 µM (inactive)
- GI50 (HCT-15): > 100 µM
- GI50 (NCI-H226): > 100 µM (inactive)
- GI50 (CAKI-1): > 100 µM (inactive)
- GI50 (PC-3): > 100 µM (inactive)
- GI50 (OVCAR-3): > 100 µM (inactive)
- GI50 (NCI-H460): > 100 µM (inactive)
- GI50 (UO-31): > 100 µM (inactive)
- GI50 (RPMI-8226): > 100 µM (inactive)
- GI50 (SF-268): > 100 µM (inactive)
- GI50 (NCI-H23): > 100 µM (inactive)
- GI50 (TK-10): > 100 µM (inactive)
- GI50 (COLO 205): > 100 µM (inactive)
- GI50 (SK-MEL-28): > 100 µM (inactive)
- GI50 (HOP-92): > 100 µM (inactive)
- GI50 (NCI-H522): > 100 µM (inactive)
- GI50 (SK-MEL-5): > 100 µM (inactive)
- GI50 (HT-29): > 100 µM (inactive)
- GI50 (UACC-257): > 100 µM (inactive)
- GI50 (KM12): > 100 µM (inactive)
- GI50 (SNB-75): > 100 µM (inactive)
- GI50 (OVCAR-8): > 100 µM (inactive)
- GI50 (MDA-MB-231): > 100 µM (inactive)
- GI50 (786-0): > 100 µM (inactive)

Compound: c1ccc2nc(CCC3CCCCN3)ccc2c1 (stereo not drawn)
- GI50 (OVCAR-5): > 100 µM (inactive)
- GI50 (SK-MEL-2): > 100 µM (inactive)
- GI50 (MDA-MB-435): 97.7 µM (inactive)
- GI50 (M14): > 100 µM (inactive)
- GI50 (RXF 393): > 100 µM (inactive)
- GI50 (EKVX): 42.2 µM (inactive)
- GI50 (HCT-116): > 100 µM (inactive)
- GI50 (HOP-62): 85.5 µM (inactive)
- GI50 (T47D): 54.5 µM (inactive)
- GI50 (Hs-578T): > 100 µM (inactive)
- GI50 (A549): > 100 µM (inactive)
- GI50 (DU-145): > 100 µM (inactive)
- GI50 (MCF7): > 100 µM (inactive)
- GI50 (MDA-N): 87.7 µM (inactive)
- GI50 (OVCAR-4): > 100 µM (inactive)
- GI50 (SF-295): 53 µM (inactive)
- GI50 (K562): 47.4 µM (inactive)
- GI50 (U-251): > 100 µM (inactive)
- GI50 (SN12C): > 100 µM (inactive)
- GI50 (NCI/ADR-RES): 49.5 µM (inactive)
- GI50 (HL-60): 67.9 µM (inactive)
- GI50 (SR): 68.5 µM (inactive)
- GI50 (SK-OV-3): > 100 µM (inactive)
- GI50 (HCC 2998): > 100 µM (inactive)
- GI50 (CCRF-CEM): 83.2 µM (inactive)
- GI50 (SW-620): > 100 µM (inactive)
- GI50 (ACHN): > 100 µM (inactive)
- GI50 (UACC-62): > 100 µM (inactive)
- GI50 (IGROV-1): 69.8 µM (inactive)
- GI50 (BT-549): 61.7 µM (inactive)
- GI50 (SNB-19): > 100 µM (inactive)
- GI50 (Malme-3M): 91.4 µM (inactive)
- GI50 (A498): 77.6 µM (inactive)
- GI50 (HCT-15): > 100 µM
- GI50 (NCI-H226): > 100 µM (inactive)
- GI50 (CAKI-1): > 100 µM (inactive)
- GI50 (PC-3): > 100 µM (inactive)
- GI50 (NCI-H460): 87.9 µM (inactive)
- GI50 (UO-31): 78.3 µM (inactive)
- GI50 (RPMI-8226): 39.9 µM (inactive)
- GI50 (SF-268): > 100 µM (inactive)
- GI50 (NCI-H23): 72.9 µM (inactive)
- GI50 (TK-10): > 100 µM (inactive)
- GI50 (COLO 205): 16.7 µM (inactive)
- GI50 (SK-MEL-28): > 100 µM (inactive)
- GI50 (HOP-92): > 100 µM (inactive)
- GI50 (NCI-H522): 40.6 µM (inactive)
- GI50 (SK-MEL-5): 38.2 µM (inactive)
- GI50 (HT-29): > 100 µM (inactive)
- GI50 (UACC-257): 42.7 µM (inactive)
- GI50 (KM12): > 100 µM (inactive)
- GI50 (LOX IMVI): > 100 µM (inactive)
- GI50 (SNB-75): 92.3 µM (inactive)
- GI50 (OVCAR-8): > 100 µM (inactive)
- GI50 (MDA-MB-231): > 100 µM (inactive)
- GI50 (786-0): > 100 µM (inactive)
